Measurements published in the supplement of paper PMC3974653.
Where a name gives a salt, the structure may show the parent alone.

System: MTT (mouse pheochromocytoma)
Assay: IC50 of cell viability (ATP content)
Conditions: (24 or 48 h)
In short: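 Each well of a white 1536-well plate received 5 µl of MTT mouse pheochromocytoma cells at 200,000 cells/ml in DMEM containing 5% FBS and 1% horse serum. After overnight culture at 37°C, 5% CO2, cells were exposed for 24 or 48 hrs to 23 nl of library compound in DMSO, pinned at 8 final concentrations from 0.5 nM to 46 µM. CellTiter-Glo luminescence was read after 15 minutes, and IC50 was obtained from a four-parameter logistic fit of signals normalised to positive-control and DMSO wells.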

Compound | IC50 of cell viability [µM]
CCC1(c2ccccc2)C(=O)NC(=O)N(C)C1=O (centres undefined) [Mephobarbital] | > 46
CNC[C@@H]1CC[C@@H](N)[C@@H](O[C@H]2[C@H](O)[C@@H](O[C@H]3OC[C@](C)(O)[C@H](NC)[C@H]3O)[C@H](N)C[C@@H]2N)O1 [Micronomicin sulfate] | > 46
C[C@@H](CN(C)C)CN1c2ccccc2Sc2ccccc21.C[C@@H](CN(C)C)CN1c2ccccc2Sc2ccccc21.O=C(O)[C@@H](O)[C@@H](O)C(=O)O [Trimeprazine tartrate] | > 46
Nc1ncnc2c1ncn2[C@@H]1O[C@H](COP(=O)(O)O)[C@@H](O)[C@H]1O [ADENOSINE-5'-MONOPHOSPHATE (AMP)] | > 46
CCN1\N=C(\C(O)=O)C(=O)C2=C1C=C3OCOC3=C2 [Cinoxacin] | > 46
C#C[C@]1(O)CC[C@H]2[C@@H]3CCc4cc(OC)ccc4[C@H]3CC[C@@]21C [MESTRANOL] | > 46
CC1=C(C(=O)N[C@H]2[C@@H]3SC(C)(C)[C@H]([N@@]3C2=O)C(O)=O)C(=NO1)C4=C(Cl)C=CC=C4F [Floxacillin] | > 46
CCOC(=O)[C@H](CCc1ccccc1)N[C@H]1CCCN2CCC[C@@H](C(=O)O)N2C1=O [Cilazapril] | > 46
Cc1ccc(C(=O)c2ccc(CC(=O)[O-])n2C)cc1.O.O.[Na+] [Tolmetin sodium salt dihydrate] | > 46
NCCc1ccc(O)cc1 [4-HYDROXYPHENETHYLAMINE] | > 46
CC[C@H]1OC(=O)[C@H](C)[C@@H](OC2CC(C)(OC)C(O)C(C)O2)[C@H](C)[C@@H](OC2OC(C)CC(N(C)C)C2O)[C@](C)(O)C[C@@H](C)/C(=N\OCOCCOC)[C@H](C)[C@@H](O)[C@]1(C)O (some centres undefined) [Roxithromycin] | > 46
Cc1ncc(COP(=O)(O)O)c(CN)c1O [PYRIDOXAMINE PHOSPHATE] | > 46
COc1cc(C(=O)NCc2ccc(OCCN(C)C)cc2)cc(OC)c1OC [Trimethobenzamide hydrochloride] | > 46
OCCN(CCO)CCO [Trolamine] | > 46
CN(C)C1C(=O)C(C(N)=O)C(=O)C2(O)C(=O)C3C(=O)c4c(O)cccc4C(C)(O)C3C(O)C12 (centres undefined) [OXYTETRACYCLINE] | > 46
CC(C)Cn1cnc2c1c(=O)n(C)c(=O)n2C [ISBUFYLLINUM] | > 46
CC/1=C(\CCN2CCC(CC2)C3=NOC4=C3C=CC(=C4)F)C(=O)N/5CCCCC5=N1 [RISPERIDONE] | > 46
[H][C@]1(CCCN(CC\C=C(\C2=C(C)C=CS2)C3=C(C)C=CS3)C1)C(O)=O [Tiagabine hydrochloride] | > 46
C[C@H]1CCC[C@H](O)CCCCCc2cc(O)cc(O)c2C(=O)O1 [Zearalanol] | > 46
O=C(O)c1nn(Cc2ccc(Cl)cc2Cl)c2ccccc12 [Lonidamine] | > 46
O=P([O-])([O-])OC(CO)CO [Glycerol phosphate calcium salt] | > 46
CCN(CC)CCOC(=O)c1cccnc1.O.O=C(O)CC(O)(CC(=O)O)C(=O)O [NICAMETATE CITRATE] | > 46

Compound | IC50 of cell viability [µM]
CCCC(CCC)C(=O)O [Valproic acid] | > 46
CC1(C)C(\C=C(/Cl)Cl)C1C(=O)OCC2=CC=CC(OC3=CC=CC=C3)=C2 (centres undefined) [PERMETHRIN] | > 46
CNNCc1ccc(C(=O)NC(C)C)cc1 [Procarbazine hydrochloride] | > 46
CC1(C)OC2CC(=O)OC[C@@]23C1CC(=O)[C@]1(C)C3CC[C@@]2(C)C(c3ccoc3)OC(=O)C3O[C@@]321 (some centres undefined) [LIMONIN] | > 46
CC(C)CCCC(C)N (centres undefined) [OCTODRINUM] | > 46
CC(C)(S)C(=O)NC(CS)C(=O)O (centres undefined) [Bucillamine] | > 46
CCOC(=O)OC(C)OC1=C(C(=O)Nc2ccccn2)N(C)S(=O)(=O)c2ccccc21 (centres undefined) [ampiroxicam] | > 46
COc1cc2c(cc1OC)CC(=O)N(CCCN(C)C[C@H]1Cc3cc(OC)c(OC)cc31)CC2 [IVABRADINE HYDROCHLORIDE] | > 46
COc1ccc(C(=O)NCc2ccc(OCCN(C)C)cc2)cc1OC [ITOPRIDE HYDROCHLORIDE] | > 46
C[C@H](O)Cn1cnc2c1c(=O)n(C)c(=O)n2C [Proxyphylline] | > 46
CCOC(=O)C\1=C(COCCN)\N\C(=C(/C1C2=CC=CC=C2Cl)C(=O)OC)C.O[S+]([O-])(=O)C3=CC=CC=C3 (centres undefined) [AMLODIPINE BESYLATE] | > 46
Nc1c(Br)cc(Br)cc1CNC1CCC(O)CC1 (centres undefined) [AMBROXOL HYDROCHLORIDE] | > 46
CN1CCN(CCC(=O)N2c3ccccc3Sc3ccc(C(F)(F)F)cc32)CC1 [Ftormetazine] | > 46
CC/1=C(CCN2CCC(CC2)C(=O)C3=CC=C(F)C=C3)/C(=O)N4\C=C/C=C\C4=N1 [PIRENPERONE] | > 46
CNC(=O)OCC[N+](C)(C)C.[Cl-] [Methylcarbamylcholine chloride] | > 46
Cc1ccc(/C(=C\CN2CCCC2)c2cccc(/C=C/C(=O)O)n2)cc1 [Acrivastine] | > 46
C1CCC(NC2CCCCC2)CC1 [Dicyclohexylamine] | > 46
CC(=O)OC1CN2CCC1CC2 (centres undefined) [ACECLIDINE] | > 46
CCN[C@@H]1CN(CCCOC)[S+](=O)([O-])c2sc([S+](N)(=O)[O-])cc21 [Brinzolamide] | > 46
CC(=O)N1CC(O)CC1C(=O)O (centres undefined) [OXACEPROLUM] | > 46
O=C1O[C@H](CN2CCOCC2)CN1/N=C\c1ccc([N+](=O)[O-])o1 [Furaltadone hydrochloride] | > 46
Nc1ccc(N)c([N+](=O)[O-])c1 [2-Nitro-1,4-phenylenediamine] | > 46

Compound | IC50 of cell viability [µM]
CNC(=N)NCCC[C@H](N)C(=O)O [L-NMMA] | > 46
ClC(Cl)Cl [Chloroform] | > 46
CCN1CCC[C@H](OC(=O)C(c2ccccc2)c2ccccc2)C1 [Piperidolate hydrochloride] | > 46
NC/1=N/C(=O)N(/C=C1)[C@H]2CC[C@@H](CO)O2 [2',3'-Dideoxycytidine] | > 46
CC1(C)OC[C@@H](COC(=O)CCc2ccc(OC[C@@H](O)CNCCNC(=O)N3CCOCC3)cc2)O1 [Landiolol] | > 46
Br.CN1[C@H]2C[C@H](OC(=O)[C@H](CO)c3ccccc3)C[C@H]1[C@H]1O[C@H]12.O.O.O [Scopolamine hydrobromide trihydrate] | > 46
CCCCCCCCCCCCCCCCO [CETYL ALCOHOL] | > 46
CCCCN1CCCC[C@H]1C(=O)Nc1c(C)cccc1C [Levobupivacaine hydrochloride] | > 46
C=CC1C[N@]2CCC1CC2C(OC(=O)OCC)c1ccnc2ccc(OC)cc12 (some centres undefined) [QUININE ETHYL CARBONATE] | > 46
Nc1ccccc1.O=[N+]([O-])O [Anilinium nitrate] | > 46
N[S+](=O)([O-])c1cc2c(cc1Cl)N[C@@H](CC1CCCC1)N[S+]2(=O)[O-] [Cyclopenthiazide] | > 46
Cc1ncc([N+](=O)[O-])n1C[C@H](O)CCl [Ornidazole] | > 46
CCCCCCCCCCCCCCCCCC(=O)OCCO [Glycol stearate] | > 46
CCCC(=O)c1cc(O)c(O)cc1O [1-(2,4,5-trihydroxyphenyl)-1-butanone] | > 46
COC(=O)c1ccccc1C(=O)c1ccc(OCCN2CCCCC2)cc1 [Pitofenona] | > 46
C[C@H](NCCc1ccc(O)cc1)[C@@H](O)c1ccc(O)cc1 [Ritodrine hydrochloride] | > 46
O=C1O[C@H]2[C@@H](OC(O)[C@@H]2O)[C@H]1O (some centres undefined) [Glucuronolactone] | > 46
Cc1c(Cn2ccnc2)c2ccccc2n1CCC(=O)O [Dazmegrel] | > 46
CC1(C)Oc2ccc(C#N)cc2[C@@H](N2CCCC2=O)[C@@H]1O [Levcromakalim] | > 46
CC(C)(C)c1cc(O)ccc1O [tert-Butylhydroquinone] | > 46
